In ChEMBL document CHEMBL1155360, “Structural characteristics of flavanones and flavones from Cudrania tricuspidata for neuraminidase inhibition” (Bioorg Med Chem Lett, 2009):

Legend:
[1] = (§1) Inhibition of Clostridium welchii neuraminidase; parameters: species or system Clostridium perfringens
Clostridium perfringens = test: as §1
[2] = Noncompetitive inhibition of Clostridium welchii neuraminidase by Dixon plot; parameters: species or system Clostridium perfringens

Structure (SMILES)	IC50 [1] [µM]	inhibition (Clostridium perfringens)	Ki [2] [µM]
O=c1c2cc(O)c(O)cc2oc2cc(O)c([C@@H]3O[C@H](CO)[C@@H](O)[C@H](O)[C@H]3O)c(O)c12 [MANGIFERIN]	11.2	Dose-dependent effect	–
CC(C)(O)CCc1c(O)cc(O)c2c1O[C@H](c1cc3c(cc1O)OC(C)(C)C=C3)CC2=O	0.38	Dose-dependent effect	0.19
CC(C)=CC1Oc2cc(O)ccc2-c2oc3cc4c(c(O)c3c(=O)c21)C=CC(C)(C)O4 (stereo not drawn) [CUDRAFLAVONE A]	29	Dose-dependent effect	44.4
CC(C)=CCc1c(-c2ccc(O)cc2O)oc2cc3c(c(O)c2c1=O)C=CC(C)(C)O3 [CUDRAFLAVONE B]	10.1	Dose-dependent effect	10.8
O=C1C[C@@H](c2ccc(O)cc2)Oc2cc(O)cc(O)c21 [NARINGENIN]	57.9	Dose-dependent effect	–
O=c1cc(-c2ccc(O)cc2O)oc2cc(O)cc(O)c12 [NORARTOCARPETIN]	1.13	Dose-dependent effect	1.96
O=c1cc(-c2ccc(O)c(O)c2)oc2cc(O)cc(O)c12 [LUTEOLIN]	4.6	Dose-dependent effect	–
O=C1C[C@@H](c2ccc(O)c(O)c2)Oc2cc(O)cc(O)c21 [ERIODICTYOL]	16	Dose-dependent effect	–
CC(C)=CCc1c(O)cc2c(c1O)C(=O)C[C@@H](c1cc3c(cc1O)OC(C)(C)C=C3)O2 [CUDRAFLAVANONE A]	1.53	Dose-dependent effect	2.01
O=c1cc(-c2ccc(O)cc2)oc2cc(O)cc(O)c12 [APIGENIN]	22.1	Dose-dependent effect	–
O=C1C[C@@H](c2ccc(O)cc2O)Oc2cc(O)cc(O)c21	8.14	Dose-dependent effect	7.2
CC1(C)C=Cc2c(cc3oc(-c4ccc(O)cc4O)cc(=O)c3c2O)O1	6.01	Dose-dependent effect	–
CC(C)=CCc1cc([C@@H]2CC(=O)c3c(cc(O)c(CC=C(C)C)c3O)O2)c(O)cc1O	10.7	Dose-dependent effect	7.16
